From patent US20080306118A1, “Process for the crystallization of (R) - or (S) - Lansoprazole” (Takeda Pharmaceutical Company Limited, priority 2000, published 2008)

Experiment: Stability test (relationship between melting start temperature and stability) of lansoprazole enantiomer crystals
Assay type: physicochemical
Details: for appearance after stability tests (FIG. 1): 40° C. 2 weeks, 50° C. 2 weeks and 60° C. 2 weeks, compared with before test; for 60° C. one month residual ratio: crystal, stability test at 60° C. for one month
Experimental: Stability Test (Relationship Between Melting Start Temperature and Stability)
Various (R)-lansoprazole crystals obtained in the above-mentioned Reference Examples and Examples were subjected to a stability test at 60° C. for one month.
The crystal of (R)-lansoprazole was subjected to a 40° C. one month stability test.
In FIG. 1, the appearance of a crystal (Example 1) having a melting start temperature of about 134° C. and a crystal (Reference Example 6) having a melting start temperature of about 130° C. before stability test and after stability tests (40° C. 2 weeks, 50° C. 2 weeks and 60° C. 2 weeks) is shown.

[1] = initial (before 40° C. one month stability test)

For Cc1c(OCC(F)(F)F)ccnc1C[S@@+]([O-])c1nc2ccccc2[nH]1 [Reference Example 6, (R)-2-[[[3-methyl-4-(2,2,2-trifluoroethoxy)-2-pyridinyl]methyl]sulfinyl]-1H-benzimidazole, reference compound], the “appearance after stability tests (FIG. 1)” value was “showed appreciably degraded appearance” and the “60° C. one month residual ratio” value was 93.8%.
With Cc1c(OCC(F)(F)F)ccnc1C[S@@+]([O-])c1nc2ccccc2[nH]1 [Example 11, (R)-2-[[[3-methyl-4-(2,2,2-trifluoroethoxy)-2-pyridinyl]methyl]sulfinyl]-1H-benzimidazole] the analogous material content (40° C. one month) was 0.2%, the appearance (40° C. one month) was “almost white” and the content (40° C. one month) was 99.7%. The analogous material content [1] was 0.2%, the appearance [1] was “almost white” and the content [1] was 99.5%.
In the case of Cc1c(OCC(F)(F)F)ccnc1C[S@@+]([O-])c1nc2ccccc2[nH]1 [Reference Example 3, (R)-2-[[[3-methyl-4-(2,2,2-trifluoroethoxy)-2-pyridinyl]methyl]sulfinyl]-1H-benzimidazole, reference compound], the “60° C. one month residual ratio” value is reported as 89.8%.
For Cc1c(OCC(F)(F)F)ccnc1C[S@@+]([O-])c1nc2ccccc2[nH]1 [Reference Example 7, (R)-2-[[[3-methyl-4-(2,2,2-trifluoroethoxy)-2-pyridinyl]methyl]sulfinyl]-1H-benzimidazole, reference compound], the analogous material content (40° C. one month) was 4.6%, the appearance (40° C. one month) was “brown” and the content (40° C. one month) was 93.8%. The analogous material content [1] was 0.1%, the appearance [1] was “almost white” and the content [1] was 99.6%.
In the case of Cc1c(OCC(F)(F)F)ccnc1C[S@@+]([O-])c1nc2ccccc2[nH]1 [Example 1, (R)-2-[[[3-methyl-4-(2,2,2-trifluoroethoxy)-2-pyridinyl]methyl]sulfinyl]-1H-benzimidazole], the “appearance after stability tests (FIG. 1)” value is reported as “did not show changes in the appearance” and the “60° C. one month residual ratio” value is reported as 99.7%.
With Cc1c(OCC(F)(F)F)ccnc1C[S@@+]([O-])c1nc2ccccc2[nH]1 [Example 2, (R)-2-[[[3-methyl-4-(2,2,2-trifluoroethoxy)-2-pyridinyl]methyl]sulfinyl]-1H-benzimidazole] the “60° C. one month residual ratio” value was 100%.
In the case of Cc1c(OCC(F)(F)F)ccnc1C[S@@+]([O-])c1nc2ccccc2[nH]1 [Example 6, (R)-2-[[[3-methyl-4-(2,2,2-trifluoroethoxy)-2-pyridinyl]methyl]sulfinyl]-1H-benzimidazole], the “60° C. one month residual ratio” value is reported as 99.2%.
